One data set relates to Boophilus microplus. Nature of the data set: Boophilus microplus injection test. The data set is classed as in vivo. The note with it: application rate 20 μg/animal, after 7 days, laying of fertile eggs. As for the experimental part: Solvent: dimethyl sulfoxide […] The animals are transferred into dishes and kept in a climate-controlled room. Efficacy is assessed after 7 days by laying of fertile eggs. Eggs which are not visibly fertile are stored in a climate-controlled cabinet until the larvae hatch after about 42 days.

For data set [1], the system named is Ctenocephalides felis. Nature of the data set: Ctenocephalides felis oral test. The note with it: application rate 100 ppm in citrated cattle blood, kill after 2 days. It counts as in vivo. An excerpt: Solvent: dimethyl sulfoxide […] Dilution with citrated cattle blood gives the desired concentration. About 20 unfed adult cat fleas (Ctenocephalides felis) are placed into a chamber which is closed at the top and bottom with gauze. A metal cylinder whose bottom end is closed with parafilm is placed onto the chamber. The cylinder contains the blood/active ingredient formulation, which can be imbibed by the fleas through the parafilm membrane.

In another data set the test system is Lucilia cuprina. Kind of data set: Lucilia cuprina test. Conditions: application rate 100 ppm, L1 larvae, kill after 2 days. It counts as in vivo. The essentials:
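About 20 L1 larvae were placed in vessels of minced horsemeat containing compound, formulated in dimethyl sulfoxide and diluted with water to the test concentration. Kill (%) was scored after 2 days; 100% means all larvae dead, 0% none.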

The subject of another data set is Musca domestica. Kind of data set: Musca domestica test. It counts as in vivo. Conditions: application rate 100 ppm, adult houseflies, kill after 2 days. A digest of the protocol: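 Compound dissolved in DMSO (10 mg per 0.5 ml), diluted with water to test concentration and applied to a sugar-solution sponge. Vessels held 10 adult houseflies; percent kill scored after 2 days (100% = all dead).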

For a further data set, the system named is Meloidogyne incognita. Nature of the data set: Meloidogyne incognita test. It counts as in vivo. Conditions: application rate 20 ppm, nematicidal efficacy by formation of galls on lettuce after 14 days. Here is the method:
Solvent: 125.0 parts by weight of acetone
To produce a suitable active ingredient formulation, 1 part by weight of active ingredient is mixed with the stated amount of solvent and the concentrate is diluted to the desired concentration with water.
Vessels are filled with sand, active ingredient solution, an egg/larvae suspension of the southern root-knot nematode (Meloidogyne incognita) and lettuce seeds. The lettuce seeds germinate and the plants develop. The galls develop on the roots.
After 14 days, the nematicidal efficacy in % is determined by the formation of galls. 100% means that no galls were found; 0% means that the number of galls on the treated plants corresponds to the untreated control.

The next data set deals with Phaedon cochleariae. Nature of the data set: Phaedon cochleariae spray test. Conditions: larvae on Chinese cabbage leaf discs, after 7 days. It counts as in vivo. Here is the method:
Solvent: 78.0 parts by weight of acetone • • 1.5 parts by weight of dimethylformamide Emulsifier: alkylaryl polyglycol ether […] To produce further test concentrations, the formulation is diluted with emulsifier-containing water. Discs of Chinese cabbage leaves (Brassica pekinensis) are sprayed with an active ingredient formulation of the desired concentration and, after drying, populated with larvae of the mustard beetle (Phaedon cochleariae).

A further data set has as its system Spodoptera frugiperda. Kind of data set: Spodoptera frugiperda spray test. Conditions: caterpillars on maize leaf discs, after 7 days. The data set is classed as in vivo. As for the experimental part: Solvent: 78.0 parts by weight of acetone • • 1.5 parts by weight of dimethylformamide Emulsifier: alkylaryl polyglycol ether […] To produce further test concentrations, the formulation is diluted with emulsifier-containing water. Leaf discs of maize (Zea mays) are sprayed with an active compound formulation of the desired concentration and, after drying, populated with caterpillars of the armyworm (Spodoptera frugiperda).

A further data set deals with Tetranychus urticae. Kind of data set: Tetranychus urticae spray test, OP-resistant. It counts as in vivo. Conditions: all stages on bean leaf discs, after 6 days. Here is the method: Solvent: 78.0 parts by weight of acetone • • 1.5 parts by weight of dimethylformamide Emulsifier: alkylaryl polyglycol ether […] To produce further test concentrations, the formulation is diluted with emulsifier-containing water. Discs of bean leaves (Phaseolus vulgaris) infested with all stages of the greenhouse red spider mite (Tetranychus urticae) are sprayed with an active ingredient formulation of the desired concentration.

The subject of data set [2] is Ctenocephalides felis. Nature of the data set: Ctenocephalides felis in vitro contact test with adult cat fleas. Conditions: application rate 5 μg/cm^2 (500 g/ha), after 48 h, dead or moribund fleas. The data set is classed as in vivo. The essentials:
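Tubes were coated with compound, and after the solvent dried off, 5–10 adult cat fleas were added to each. Tubes were kept horizontal at room temperature and ambient humidity for 48 h. Fleas that stayed motionless or moved uncoordinated after being knocked down were scored as dead or moribund.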

The next data set relates to Rhipicephalus sanguineus. Kind of data set: Rhipicephalus sanguineus in vitro contact test with adult brown dog ticks. The data set is classed as in vivo. Conditions: application rate 5 μg/cm^2 (500 g/ha), after 48 h, dead or moribund ticks. As for the experimental part:
After the solvent has evaporated off, the tubes are populated with 5-10 adult dog ticks (Rhipicephalus sanguineus), sealed with a perforated plastic lid and incubated in a horizontal position in the dark at room temperature and ambient humidity. After 48 h, efficacy is determined. To this end, the ticks are knocked to the base of the tube and incubated on a hotplate at 45-50° C. for not more than 5 min. Ticks which remain motionless on the base or move in such an uncoordinated manner that they are unable to deliberately avoid the heat by climbing upwards are considered to be dead or moribund.

For data set [3], the system named is cattle ticks (Boophilus microplus) Parkhurst strain, SP-resistant. Nature of the data set: Boophilus microplus dip test. The data set is classed as in vivo. The note with it: application rate 100 ppm, after 7 days, laying of fertile eggs. Here is the method:
Test animals: cattle ticks (Boophilus microplus) Parkhurst strain, SP-resistant
Solvent: dimethyl sulfoxide
10 mg of active ingredient are dissolved in 0.5 ml of dimethyl sulfoxide. To produce a suitable formulation, the active ingredient solution is diluted with water to the concentration desired in each case.
This active ingredient formulation is pipetted into tubes. 8-10 engorged adult female cattle ticks (Boophilus microplus) are transferred into a further tube with holes. The tube is immersed into the active ingredient formulation, and all the ticks are completely wetted. After the liquid has run out, the ticks are transferred on filter disks into plastic dishes and stored in a climate-controlled room.
Efficacy is assessed after 7 days by laying of fertile eggs. Eggs which are not visibly fertile are stored in a climate-controlled cabinet until the larvae hatch after about 42 days. An efficacy of 100% means that none of the ticks has laid any fertile eggs; 0% means that all the eggs are fertile.

Data set [4] is described as follows: logP determination by HPLC on reversed-phase column (EEC Directive 79/831 Annex V.A8). Conditions: Table 1; HPLC C18, acetonitrile/water with formic acid. The data set is classed as physicochemical.

Among the data in patent US10202351B2, “Pyrazolyl derivatives as pest control agents” (BAYER ANIMAL HEALTH GMBH, priority 2015, dated 2019) are efficacy and lgP values, retold here.

For `Cc1cc(C(F)(C(F)(F)F)C(F)(F)F)cc(C(F)(F)F)c1-n1cc(-c2cc(NC(=O)c3ccc(C#N)nc3)ccc2F)cn1` [Example 2-3], the efficacy in the data set on Boophilus microplus is on record as 100%; with Ctenocephalides felis [1] it was 100%; in the data set with Lucilia cuprina, 100%; in the data set on Musca domestica, 100%; in the data set with Meloidogyne incognita, 90%; with Phaedon cochleariae (application rate 100 g/ha), 100%. Also, the efficacy came to 100% in the data set with Spodoptera frugiperda (application rate 100 g/ha) and 90% in the data set with Tetranychus urticae (application rate 100 g/ha).
In the case of `Cc1cc(C(F)(C(F)(F)F)C(F)(F)F)cc(C(F)(F)F)c1-n1cc(-c2cc(NC(=O)c3ccc(Cl)nc3)ccc2F)cn1` [Example 2-4], the efficacy with Boophilus microplus worked out at 100%; in the data set with Ctenocephalides felis [1], 95%; in the data set on Lucilia cuprina, 90%; in the data set on Meloidogyne incognita it was 90%; in the data set with Phaedon cochleariae (application rate 100 g/ha), 100%; in the data set with Spodoptera frugiperda (application rate 100 g/ha), 100%.
For the molecule `O=C(Nc1ccc(F)c(-c2cnn(-c3c(Br)cc(C(F)(C(F)(F)F)C(F)(F)F)cc3C(F)(F)F)c2)c1)c1ccncc1` [Example 2-13], the efficacy is listed as 80% in the data set with Ctenocephalides felis [2]; 80% in the data set with Rhipicephalus sanguineus; 100% in [3]; 100% with Boophilus microplus; 100% in the data set on Ctenocephalides felis [1]; 100% in the data set on Lucilia cuprina. The efficacy was 100% in the data set on Musca domestica, 100% with Phaedon cochleariae (application rate 100 g/ha), 100% in the data set on Spodoptera frugiperda (application rate 100 g/ha) and 90% with Tetranychus urticae (application rate 100 g/ha).
Regarding `Cc1cc(C(F)(C(F)(F)F)C(F)(F)F)cc(C)c1-n1cc(-c2ccc(Cl)c(NC(=O)c3ccncc3)c2)cn1` [Example 2], the efficacy (with Ctenocephalides felis [2]; in the data set with Rhipicephalus sanguineus; in data set [3]; in the data set with Boophilus microplus; in the data set on Ctenocephalides felis [1]; in the data set on Lucilia cuprina) was 100% each time. Further, the efficacy with Musca domestica, in the data set on Phaedon cochleariae (application rate 500 g/ha), in the data set on Spodoptera frugiperda (application rate 100 g/ha), in the data set with Spodoptera frugiperda (application rate 500 g/ha), with Tetranychus urticae (application rate 100 g/ha) and in the data set with Tetranychus urticae (application rate 500 g/ha) was 100% each time. In addition, the lgP entry in data set [4] is on record as “lgP 4.41”.
